Data on eight substances can be found in patent US11753445B2, “Therapeutic peptides” (COHBAR, INC., priority 2016, dated 2023).

For experiment [1], the system named is Diet Induced Obese (DIO) mice. Nature of the experiment: Body weight, blood glucose and fat mass in Diet Induced Obese mice, 10 days (Example 6). As to conditions: male DIO mice; 10 days twice daily intraperitoneal 15 mg/kg; N = 8; mean. The format is in vivo, Male C57BL/6 mice. The gist of the method: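 Male DIO mice (n=8/group), randomized by blood glucose and body weight, dosed 15 mg/kg/dose once or twice daily s.c. or i.p. for 10 days vs vehicle. Body weight, blood glucose and food intake monitored; fat vs lean mass by quantitative whole-body NMR before and after dosing.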

The test system of the next experiment is Human Primary Adipocytes. Nature of the experiment: Free fatty acid levels in cultured human primary adipocytes, isoproterenol stimulated (Example 4). The format is cell-based. The following applies: isoproterenol 1 nM; for Free Fatty Acid Levels in Human Primary Adipocytes Expressed as a Percent of Isoproterenol Control: Percent of Control Value: test peptides 25 μM. How it is done: Human primary adipocytes were seeded at 5,000-100,000 cells per well on 96-well, 48-well, or 24-well plates in Pre-adipocyte Medium (Zen-Bio, Durham, N.C.) and grown to confluence at 37° C. in a humidified atmosphere of 5% CO2/95% air. Two days after confluence, cells were placed in Adipocyte Differentiation Medium (Zen-Bio, Durham, N.C.) and cultured for three additional days at 37° C. in a humidified atmosphere of 5% CO2/95% air. The culture media was then replaced with Adipocyte Maintenance Medium (Zen-Bio) and the cells were maintained for an additional 11-21 days at 37° C. in a humidified atmosphere of 5% CO2/95% air with partial medium replacement every other day. Following 14-24 days of differentiation, test peptides were added at a final concentration of 25 μM and incubated for 18-20 hours in Adipocyte Maintenance Medium at 37° C. in a humidified atmosphere of 5% CO2/95%. After 18-20 hours, the media was exchanged with fresh Adipocyte Maintenance Medium containing test peptides and incubated for 1 h at 37° C. in a humidified atmosphere of 5% CO2/95%. After 1 h media was exchanged with Assay Buffer (Zen-Bio) containing isoproterenol (1 nM) (added to all samples except untreated controls) and test peptides. Cells were incubated for a further 3 hours at 37° C. in a humidified atmosphere of 5% CO2/95%. Free fatty acid concentrations in the media were determined using a Free Fatty Acid Assay Kit (Zen-Bio) according to the manufacturer's instructions using a plate reader (540 nm). Absorbance values were corrected for untreated background and expressed relative to isoproterenol treated cells. Treatment with isoproterenol (1 nM) alone was used as the free fatty acid level stimulatory control. The relative standard deviation of the isoproterenol control was <14%. […] Free fatty acid levels for insulin (100 nM) treatment were <5% of the isoproterenol control value.

Experiment [2] concerns 3T3-L1 Adipocytes. As to the kind of experiment: Free fatty acid levels in cultured mouse 3T3-L1 adipocytes, isoproterenol stimulated (Example 2). As to conditions: isoproterenol 1 nM; for Free Fatty Acid Levels in 3T3-L1 Adipocytes Expressed as a Percent of Isoproterenol Control: Percent of Control Value: test peptides 25 μM. The format is cell-based. The gist of the method:
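3T3-L1 cells differentiated 12–17 days into adipocytes, then exposed to test peptides at 25 μM final for 18–20 h, then 1 h, then 3 h with isoproterenol (1 nM) at 37 °C. Free fatty acids in the medium measured colorimetrically at 540 nm, corrected for untreated background and expressed relative to isoproterenol-only cells.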

Experiment [3] concerns 3T3-L1 Adipocytes. As to the kind of experiment: Free fatty acid levels in cultured mouse 3T3-L1 adipocytes, forskolin stimulated (Example 3). Type of experiment: cell-based. As to conditions: forskolin 1 μM; for Free Fatty Acid Levels in 3T3-L1 Adipocytes Expressed as a Percent of Forskolin Control: Percent of Control Value: test peptides 25 μM. How it is done: Mouse 3T3-L1 cells were seeded at 1,000-20,000 cells per well on 96-well, 48-well, or 24-well plates in Pre-adipocyte Medium (Zen-Bio, Durham, N.C.) and grown to confluence at 37° C. in a humidified atmosphere of 5% CO2/95% air. Two days after confluence, cells were placed in Adipocyte Differentiation Medium (Zen-Bio, Durham, N.C.) and cultured for three additional days at 37° C. in a humidified atmosphere of 5% CO2/95% air. The culture media was then replaced with Adipocyte Maintenance Medium (Zen-Bio) and the cells were maintained for an additional 9-14 days at 37° C. in a humidified atmosphere of 5% CO2/95% air with partial medium replacement every other day. Following 12-17 days of differentiation, test peptides were added at a final concentration of 25 μM and incubated for 18-20 hours in Adipocyte Maintenance Medium at 37° C. in a humidified atmosphere of 5% CO2/95%. After 18-20 hours, the media was exchanged with fresh Adipocyte Maintenance Medium containing test peptides and incubated for 1 h at 37° C. in a humidified atmosphere of 5% CO2/95%. After 1 h media was exchanged with Assay Buffer (Zen-Bio) containing forskolin (1 μM) (added to all samples except untreated controls) and test peptides. Cells were incubated for a further 3 hours at 37° C. in a humidified atmosphere of 5% CO2/95%. Free fatty acid concentrations in the media were determined using a Free Fatty Acid Assay Kit (Zen-Bio) according to the manufacturer's instructions using a plate reader (540 nm). Absorbance values were corrected for untreated background and expressed relative to forskolin treated cells. Treatment with forskolin (1 μM) alone was used as the free fatty acid level stimulatory control. The relative standard deviation of the forskolin control was <10%. […] Free fatty acid levels for insulin (100 nM) treatment were <9% of the forskolin control value.

The mark [4] stands for this setting: insulin 100 nM, 3T3-L1 adipocytes.

Regarding H-MRWQEMNYIFYPR-OH [compound 208], in experiment [1], the “Difference from Vehicle Control: Decrease from Baseline in Blood Glucose” value was -11.5 mg/dL, the “Difference from Vehicle Control: Decrease from Baseline in Body Weight (%)” value (“Difference from Vehicle Control: Decrease … (%)” for short) is reported as −5.05% and the “Difference from Vehicle Control: Decrease from Baseline in Fat Mass” value is -1.87 g. In addition, the “Free Fatty Acid Levels in Human Primary Adipocytes Expressed as a Percent of Isoproterenol Control: Percent of Control Value” in the experiment with Human Primary Adipocytes came to 70.9%. Further, in the experiment on 3T3-L1 Adipocytes [2], the “Free Fatty Acid Levels in 3T3-L1 Adipocytes Expressed as a Percent of Isoproterenol Control: Percent of Control Value” was determined as 57.9%. Besides, the “Free Fatty Acid Levels in 3T3-L1 Adipocytes Expressed as a Percent of Forskolin Control: Percent of Control Value” with 3T3-L1 Adipocytes [3] was found to be 62.4%.
With H-RWQEMQYIFYPR-OH [compound 211], in experiment [1], the “Difference from Vehicle Control: Decrease from Baseline in Blood Glucose” value was -2.25 mg/dL, the “Difference from Vehicle Control: Decrease … (%)” value is listed as −1.04% and the “Difference from Vehicle Control: Decrease from Baseline in Fat Mass” value is -0.43 g. Besides, the “Free Fatty Acid Levels in Human Primary Adipocytes Expressed as a Percent of Isoproterenol Control: Percent of Control Value” in the experiment on Human Primary Adipocytes is listed as 79.9%. In the experiment with 3T3-L1 Adipocytes [2], the “Free Fatty Acid Levels in 3T3-L1 Adipocytes Expressed as a Percent of Isoproterenol Control: Percent of Control Value” turned out to be 29.9%. Besides, the “Free Fatty Acid Levels in 3T3-L1 Adipocytes Expressed as a Percent of Forskolin Control: Percent of Control Value” in the experiment with 3T3-L1 Adipocytes [3] was 33.7%.
With H-MRWQEMQYIFYPRALR-OH [compound 219], in experiment [1], the “Difference from Vehicle Control: Decrease from Baseline in Blood Glucose” value was -17.3 mg/dL, the “Difference from Vehicle Control: Decrease … (%)” value is −4.09% and the “Difference from Vehicle Control: Decrease from Baseline in Fat Mass” value is -1.37 g. The “Free Fatty Acid Levels in Human Primary Adipocytes Expressed as a Percent of Isoproterenol Control: Percent of Control Value” with Human Primary Adipocytes was found to be 69.4%. The “Free Fatty Acid Levels in 3T3-L1 Adipocytes Expressed as a Percent of Isoproterenol Control: Percent of Control Value” in the experiment on 3T3-L1 Adipocytes [2] came to 38.9%. Moreover, the “Free Fatty Acid Levels in 3T3-L1 Adipocytes Expressed as a Percent of Forskolin Control: Percent of Control Value” in the experiment with 3T3-L1 Adipocytes [3] came out at 41.5%.
H-MRWQEMGYIFYPRKLR-OH [compound 2]: in experiment [1], the “Difference from Vehicle Control: Decrease from Baseline in Blood Glucose” value was -4.88 mg/dL, the “Difference from Vehicle Control: Decrease … (%)” value is recorded as −0.58% and the “Difference from Vehicle Control: Decrease from Baseline in Fat Mass” value was -0.24 g. The “Free Fatty Acid Levels in Human Primary Adipocytes Expressed as a Percent of Isoproterenol Control: Percent of Control Value” in the experiment on Human Primary Adipocytes worked out at 107%. For the same substance, in the experiment with 3T3-L1 Adipocytes [2], the “Free Fatty Acid Levels in 3T3-L1 Adipocytes Expressed as a Percent of Isoproterenol Control: Percent of Control Value” is given as 63.3%. For the same substance, in the experiment on 3T3-L1 Adipocytes [3], the “Free Fatty Acid Levels in 3T3-L1 Adipocytes Expressed as a Percent of Forskolin Control: Percent of Control Value” is given as 59.2%.
For H-MRWQEMGYIFYPRNLR-OH [compound 213], in experiment [1], the “Difference from Vehicle Control: Decrease from Baseline in Blood Glucose” value was -20.1 mg/dL, the “Difference from Vehicle Control: Decrease … (%)” value was −4.21% and the “Difference from Vehicle Control: Decrease from Baseline in Fat Mass” value was -1.16 g. Besides, in the experiment with Human Primary Adipocytes, the “Free Fatty Acid Levels in Human Primary Adipocytes Expressed as a Percent of Isoproterenol Control: Percent of Control Value” is 103%. The “Free Fatty Acid Levels in 3T3-L1 Adipocytes Expressed as a Percent of Isoproterenol Control: Percent of Control Value” in the experiment with 3T3-L1 Adipocytes [2] worked out at 48.1%. For the same substance, the “Free Fatty Acid Levels in 3T3-L1 Adipocytes Expressed as a Percent of Forskolin Control: Percent of Control Value” in the experiment with 3T3-L1 Adipocytes [3] worked out at 36.0%.
H-RWQEMNYIFYPR-OH [compound 210]: in experiment [1], the “Difference from Vehicle Control: Decrease from Baseline in Blood Glucose” value came out at 8.25 mg/dL, the “Difference from Vehicle Control: Decrease … (%)” value is −3.70% and the “Difference from Vehicle Control: Decrease from Baseline in Fat Mass” value is -1.45 g. For the same substance, in the experiment with Human Primary Adipocytes, the “Free Fatty Acid Levels in Human Primary Adipocytes Expressed as a Percent of Isoproterenol Control: Percent of Control Value” is 75.5%. The “Free Fatty Acid Levels in 3T3-L1 Adipocytes Expressed as a Percent of Isoproterenol Control: Percent of Control Value” in the experiment with 3T3-L1 Adipocytes [2] was determined as 44.6%. Also, the “Free Fatty Acid Levels in 3T3-L1 Adipocytes Expressed as a Percent of Forskolin Control: Percent of Control Value” with 3T3-L1 Adipocytes [3] is 29.2%.
With Insulin [reference compound], the “Free fatty acid levels, % of the isoproterenol control value” with Human Primary Adipocytes (insulin 100 nM, human primary adipocytes) is less than 5%; in the experiment with 3T3-L1 Adipocytes [2] (setting [4]) it was less than 5%. Besides, the “Free fatty acid levels, % of the forskolin control value” in the experiment on 3T3-L1 Adipocytes [3] (setting [4]) is given as less than 9%.
Turning to H-MRWQEMGYIFYPRKLA-OH [compound 21], in experiment [1], the “Difference from Vehicle Control: Decrease from Baseline in Blood Glucose” value was -4.21 mg/dL, the “Difference from Vehicle Control: Decrease … (%)” value is given as −3.00% and the “Difference from Vehicle Control: Decrease from Baseline in Fat Mass” value is -2.03 g. Moreover, the “Free Fatty Acid Levels in Human Primary Adipocytes Expressed as a Percent of Isoproterenol Control: Percent of Control Value” in the experiment on Human Primary Adipocytes was found to be 88.9%. For the same substance, the “Free Fatty Acid Levels in 3T3-L1 Adipocytes Expressed as a Percent of Isoproterenol Control: Percent of Control Value” in the experiment with 3T3-L1 Adipocytes [2] worked out at 45.1%. Moreover, the “Free Fatty Acid Levels in 3T3-L1 Adipocytes Expressed as a Percent of Forskolin Control: Percent of Control Value” in the experiment with 3T3-L1 Adipocytes [3] turned out to be 56.0%.
